Common to all, as to format: cell-based, human
Test [1] concerns PBMCs from DLBCL patients. The experiment in a line: γ-IFN release ELISPOT, PBMCs of DLBCL patients after short-term culture with peptides. Also noted: γ-IFN response to peptides: unit not given here. The following applies: for TH γ-IFN response to peptides at time of diagnosis and after one year: DLBCL patients (FIG. 5), short term culture, p<0.05; for γ-IFN response to peptides: triplicate ELISPOT; for immunogenicity among patients studied: TH γ-IFN response, DLBCL patients; for γ-IFN response to the PASD1(1) CTL peptide elicited by culture with the peptide: cells cultured 8-10 days with PASD1(6) or PASD1(7), Table 4; for order of immunogenicity for eliciting TH cell responses / order of immunogenicity for eliciting CTLs: from γ-IFN release assay; for order of immunogenicity for eliciting TH cell responses: order PASD1(6), PASD1(7), PASD1(10), PASD1(9), PASD1(8); for order of immunogenicity for eliciting CTLs: order PASD1(1), PASD1(2), PASD1(5), PASD1(3), PASD1(4).

In test [2] the test system is PBMCs from healthy donors. Nature of the test: γ-IFN release ELISPOT, PBMCs of healthy donors after short-term culture with peptides. The following applies: triplicate ELISPOT, ± SD.
The test system of test [3] is Thiel (myeloma) cell line. The experiment in a line: 51Cr release cytolytic assay of peptide-specific CTL/TH cell lines. The settings on record: for lysis by TH cell lines specific for the peptide: PASD1-positive Thiel, 18 h 51Cr release; for lysis by CTL lines raised against the peptide: HLA-A*0201-positive PASD1-positive Thiel, 4 h 51Cr release, four patients. The procedure:
(§1) A conventional ^51Cr-labelling release assay was used to investigate the ability of CTL and TH cell lines generated from DLBCL patients to lyse PASD1-positive tumour target cells. The target cell lines, consisting of the OCI-Ly3, SUDHL-6, KM-H2 and Thiel, were radiolabelled with 100 μCi ^51Cr for 90 minutes. […] The incubation period of the TH with the target cells was increased to 18 hours. Maximum ^51Cr release was determined following the addition of 10% Triton-X to the radiolabelled target cells and spontaneous release was assessed by adding RPMI1640/FCS to the target cells. The supernatant was harvested and counted in a gamma-counter (Beckmann, Heidelberg, Germany).

Test [4] deals with SUDHL-6 (DLBCL) cell line. The test is described as above. The settings on record: PASD1-negative SUDHL-6; for lysis by TH cell lines specific for the peptide: 18 h 51Cr release; for lysis by CTL lines raised against the peptide: 4 h 51Cr release. How it is done: as §1
For test [5], the system named is OCI-Ly3 (DLBCL) cell line. Described as above. The settings on record: for lysis by TH cell lines specific for the peptide: PASD1-positive OCI-Ly3, 18 h 51Cr release; for lysis by CTL lines raised against the peptide: PASD1-positive HLA-A*0201-negative OCI-Ly3, 4 h 51Cr release. How it is done: as §1
The test system of another test is KM-H2 (HL) cell line. The experiment in a line: 51Cr release cytolytic assay of peptide-specific CTL cell lines. The following applies: HLA-A*0201-negative PASD1-positive KM-H2; 4 h 51Cr release. The procedure: as §1
Setting [6] is: PBMCs from a DLBCL patient stimulated in culture with PASD1(6) or PASD1(7) peptides, +/− SD.
The mark [7] stands for this setting: Patient 1, De novo DLBCL, DRB1-0102, group Significant response, ± SD.
Setting [8] is: Patient 2, De novo DLBCL, DRB1-0101, group Significant response, ± SD.
The mark [9] stands for this setting: Patient 3, De novo DLBCL, DRB1-0301, group Significant response, ± SD.
Where [10] appears, read: Patient 4, De novo DLBCL, DRB1-0102, group Significant response, ± SD.
Where [11] appears, read: Patient 8, De novo DLBCL, DRB1-1501, group Significant response, ± SD.
Where [12] appears, read: Patient 9, De novo DLBCL, DRB1-0301, group Significant response, ± SD.
The mark [13] stands for this setting: Patient 10, De novo DLBCL, DRB1-0101, group No significant response, ± SD.
[14] abbreviates: Patient 12, De novo DLBCL, DRB1-0401, group Significant response, ± SD.
Setting [15] is: Patient 15, De novo DLBCL, DRB1-1301, group No significant response, ± SD.
Setting [16] is: Patient 17, De novo DLBCL, DRB1-0301, group No significant response, ± SD.
Setting [17] is: Patient 18, De novo DLBCL, DRB1-0401, group No significant response, ± SD.
The mark [18] stands for this setting: Patient 19, De novo DLBCL, DRB1-1104, group No significant response, ± SD.
[19] abbreviates: Patient 20, De novo DLBCL, DRB1-1303, group No significant response, ± SD.
Where [20] appears, read: Patient 21, De novo DLBCL, DRB1-0301, group No significant response, ± SD.
Setting [21] is: Patient 24, De novo DLBCL, DRB1-1301, group Significant response, ± SD.
[22] abbreviates: Patient 28, Trans DLBCL, DRB1-0701, group No significant response, ± SD.
[23] abbreviates: Patient 37, Trans DLBCL, DRB1-0103, group Significant response, ± SD.
Where [24] appears, read: Patient 48, T-cell rich DLBCL, DRB1-0301, group Significant response, ± SD.
Setting [25] is: Patient 61, De novo DLBCL, DRB1-0401, group No significant response, ± SD.

In the case of “DYFNQVTLQLLDGFMITLST (listed as Homo sapiens) [PASD1(6)]”, the “TH γ-IFN response to peptides at time of diagnosis and after one year” value in test [1] was “significant”. Moreover, the “γ-IFN response to peptides” value in test [1] (setting [6]) is reported as 32 +/− 2; in test [1] (setting [7]), 52 ± 6; in test [1] (setting [8]), 32 ± 4; in test [1] (setting [9]) it was 34 ± 4; in test [1] (setting [10]), 58 ± 8; in test [1] (setting [11]) it was 36 ± 6. The “γ-IFN response to peptides” value in test [1] (setting [12]) turned out to be 22 ± 6; in test [1] (setting [13]), 30 ± 8; in test [1] (setting [14]) it was 44 ± 6; in test [1] (setting [15]), 28 ± 4; in test [1] (setting [16]), 20 ± 2; in test [1] (setting [17]), 14 ± 2. For the same sequence, the “γ-IFN response to peptides” value came to 22 ± 2 in test [1] (setting [18]); 10 ± 2 in test [1] (setting [19]); 18 ± 2 in test [1] (setting [20]); 22 ± 4 in test [1] (setting [21]); 28 ± 4 in test [1] (setting [22]); 38 ± 4 in test [1] (setting [23]). Moreover, the “γ-IFN response to peptides” value is on record as 48 ± 4 in test [1] (setting [24]); 22 ± 2 in test [1] (setting [25]); 14 ± 2 in test [2] (Healthy donor HD 1, DRB1-0102); 10 ± 2 in test [2] (Healthy donor HD 2, DRB1-0401); 5 ± 2 in test [2] (Healthy donor HD 3, DRB1-0401); 14 ± 2 in test [2] (Healthy donor HD 4, DRB1-0301). Also, the “γ-IFN response to peptides” value in test [2] (Healthy donor HD 5, DRB1-0301) was 24 ± 2. The “immunogenicity among patients studied” value in test [1] is on record as “immunogenic in the majority of patients”. Further, the “γ-IFN response to the PASD1(1) CTL peptide elicited by culture with the peptide” value in test [1] is on record as “comparable”. In addition, the “order of immunogenicity for eliciting TH cell responses” value in test [1] was “most immunogenic”. Moreover, the “lysis by TH cell lines specific for the peptide” value in test [3] is “Significant dose dependent lysis”; in test [4], “no significant lysis”; in test [5] it was “Significant dose dependent lysis”.

As for “DGFMITLSTDGVIICVAENI (listed as Homo sapiens) [PASD1(7)]”, the “TH γ-IFN response to peptides at time of diagnosis and after one year” value in test [1] is “significant”. For the same sequence, the “γ-IFN response to peptides” value in test [1] (setting [6]) is on record as 26 +/− 2; in test [1] (setting [7]) it was 28 ± 4; in test [1] (setting [8]), 46 ± 8; in test [1] (setting [9]), 26 ± 4; in test [1] (setting [10]) it was 44 ± 4; in test [1] (setting [11]), 18 ± 2. The “γ-IFN response to peptides” value in test [1] (setting [12]) is given as 18 ± 2; in test [1] (setting [13]) it was 26 ± 2; in test [1] (setting [14]) it was 36 ± 4; in test [1] (setting [15]), 32 ± 2; in test [1] (setting [16]), 18 ± 4; in test [1] (setting [17]), 26 ± 2. The “γ-IFN response to peptides” value turned out to be 26 ± 2 in test [1] (setting [18]); 14 ± 2 in test [1] (setting [19]); 10 ± 2 in test [1] (setting [20]); 38 ± 4 in test [1] (setting [21]); 22 ± 6 in test [1] (setting [22]); 32 ± 6 in test [1] (setting [23]). In addition, the “γ-IFN response to peptides” value was determined as 56 ± 6 in test [1] (setting [24]); 10 ± 4 in test [1] (setting [25]); 20 ± 2 in test [2] (Healthy donor HD 1, DRB1-0102); 8 ± 2 in test [2] (Healthy donor HD 2, DRB1-0401); 10 ± 2 in test [2] (Healthy donor HD 3, DRB1-0401); 20 ± 2 in test [2] (Healthy donor HD 4, DRB1-0301). Moreover, the “γ-IFN response to peptides” value in test [2] (Healthy donor HD 5, DRB1-0301) is listed as 22 ± 2. Besides, in test [1], the “immunogenicity among patients studied” value is on record as “immunogenic in the majority of patients”. The “γ-IFN response to the PASD1(1) CTL peptide elicited by culture with the peptide” value in test [1] is on record as “comparable”. In test [1], the “order of immunogenicity for eliciting TH cell responses” value is recorded as “most immunogenic”. Besides, the “lysis by TH cell lines specific for the peptide” value is on record as “Significant dose dependent lysis” in test [3], “no significant lysis” in test [4] and “Significant dose dependent lysis” in test [5].

Take “YLVGNVCIL (listed as Homo sapiens) [PASD1(2)]”: the “order of immunogenicity for eliciting CTLs” value (from here on “order … for eliciting CTLs”) in test [1] is reported as “more immunogenic”. For the same sequence, the “lysis by CTL lines raised against the peptide” value (shortened to “lysis by CTL lines raised”) in test [3] is on record as “dose dependent lysis”; in test [4], “not”; in test [5], “not”; in the test with KM-H2 (HL) cell line it was “not”.

Regarding “ELSDSLGPV (listed as Homo sapiens) [PASD1(5)]”, in test [1], the “order … for eliciting CTLs” value is “more immunogenic”. Further, the “lysis by CTL lines raised” value in test [3] was “dose dependent lysis”; in test [4], “not”; in test [5] it was “not”; with KM-H2 (HL) cell line, “not”.

For the sequence “QLLDGFMITL (listed as Homo sapiens) [PASD1(1)]”, the “γ-IFN response to peptides” value in test [1] (setting [6]) is given as 30 +/− 4. Besides, in test [1], the “order … for eliciting CTLs” value is listed as “most immunogenic”. In addition, the “lysis by CTL lines raised” value in test [3] is “dose dependent lysis”; in test [4], “not”; in test [5], “not”; in the test with KM-H2 (HL) cell line it was “not”. The “cytolytic effect of peptide-stimulated cells” value in test [3] (effector:target ratio of 5:1, all four patients) is recorded as “significant”.

For the origin of these results see patent publication US8501908B2, “Immunogenic peptides” (priority 2008, dated 2013).
